Literature values in publication PMC6225228, “Design, Synthesis and Evaluation of N-pyrazinylbenzamides as Potential Antimycobacterial Agents” (Molecules : A Journal of Synthetic Chemistry and Natural …, 2018).
Read-outs that look alike come from different tables or passages of the source. Marks after values point to notes of the source that are not given here.

How the values were obtained:
[1] = system: Mycobacterium tuberculosis H37Rv (Mtb); conditions: Šula's semisynthetic medium, cited from earlier work; for Amides MIC (value in parentheses): second value in parentheses
[2] = system: Mycobacterium tuberculosis H37Rv (Mtb); conditions: cited from earlier work
[3] = pH = 5.6, turbidity, first value

Q: With O=C(Nc1cccc(C(F)(F)F)c1)c1cnc(Cl)cn1 [Amide R1=5-Cl R2=3-CF3] as the molecule, how does the “Amides MIC” value [1, 3] read?
A: 3.13 µg/mL

Q: What about the “Amides MIC (value in parentheses)” value ([1]; pH = 5.6, turbidity) of the same molecule?
A: 6.25 µg/mL

Q: Which “Amides MIC” value [1, 3] does the source give for O=C(Nc1cccc(Cl)c1)c1cnc(Cl)cn1 [Amide R1=5-Cl R2=3-Cl] here?
A: 6.25 µg/mL

Q: And the “Amides MIC (value in parentheses)” value ([1]; pH = 5.6, turbidity)?
A: 3.13 µg/mL

Q: Which “Amides MIC” value [1, 3] does the source give for O=C(Nc1cccc(O)c1)c1cnc(Cl)cn1 [Amide R1=5-Cl R2=3-OH] here?
A: 6.25 ^c [18] μg/mL

Q: Which “Amides MIC” value [1, 3] does the source give for O=C(Nc1ccc(Br)cc1)c1cnc(Cl)cn1 [Amide R1=5-Cl R2=4-Br] here?
A: 3.13 ^c [18] μg/mL

Q: Which results are given for O=C(Nc1ccc(O)cc1)c1cnc(Cl)cn1 [Amide R1=5-Cl R2=4-OH]?
A: Amides MIC [1, 3]: 3.13 µg/mL; Amides MIC (value in parentheses) ([1]; pH = 5.6, turbidity): 12.5 µg/mL

Q: For O=C(Nc1ccccc1Cl)c1cncc(Cl)n1 [Amide R1=6-Cl R2=2-Cl], which “Amides MIC” value ([1]; pH = 5.6, MABA) is on record?
A: 100 ^d [34] μg/mL

Q: For COc1ccccc1NC(=O)c1cncc(Cl)n1 [Amide R1=6-Cl R2=2-OCH3], which “Amides Inhibition (%) at 6.25 μg/mL (TAACF)” value (“Amides Inhibition (%)” below) [2] is on record?
A: 6 [35] %

Q: With O=C(Nc1cccc(C(F)(F)F)c1)c1cncc(Cl)n1 [Amide R1=6-Cl R2=3-CF3] as the molecule, how does the “Amides Inhibition (%)” value [2] read?
A: 77 [32] %

Q: With O=C(Nc1cccc(Cl)c1)c1cncc(Cl)n1 [Amide R1=6-Cl R2=3-Cl] as the molecule, how does the “Amides Inhibition (%)” value [2] read?
A: 14 [33] %

Q: For COc1cccc(NC(=O)c2cncc(Cl)n2)c1 [Amide R1=6-Cl R2=3-OCH3], which “Amides Inhibition (%)” value [2] is on record?
A: 2 [31] %

Q: With Cc1ccc(NC(=O)c2cncc(Cl)n2)cc1 [Amide R1=6-Cl R2=4-CH3] as the molecule, how does the “Amides Inhibition (%)” value [2] read?
A: 71 [32] %

Q: Which “Amides Inhibition (%)” value [2] does the source give for O=C(Nc1ccc(Cl)cc1)c1cncc(Cl)n1 [Amide R1=6-Cl R2=4-Cl] here?
A: 65 [33] %
